Results: patent US8546381B2, “Bridged heterocyclic compounds and methods of use” (Medivation Technologies, Inc., priority 2008, dated 2013)

Columns and labels:
[1] = biological target: T1, human recombinant histamine H1 receptor (Homo sapiens, UniProt P35367); assay: Histamine H1 radioligand binding ([3H]Pyrilamine); conditions: compound at 1 μM; inhibition of specific [3H]Pyrilamine binding; read-out: Histamine Binding (1 μM) H1, Percentage Inhibition
T1 construct: expressed in transfected cells; host or cells: CHO cells
T1 sequence (P35367 whole entry): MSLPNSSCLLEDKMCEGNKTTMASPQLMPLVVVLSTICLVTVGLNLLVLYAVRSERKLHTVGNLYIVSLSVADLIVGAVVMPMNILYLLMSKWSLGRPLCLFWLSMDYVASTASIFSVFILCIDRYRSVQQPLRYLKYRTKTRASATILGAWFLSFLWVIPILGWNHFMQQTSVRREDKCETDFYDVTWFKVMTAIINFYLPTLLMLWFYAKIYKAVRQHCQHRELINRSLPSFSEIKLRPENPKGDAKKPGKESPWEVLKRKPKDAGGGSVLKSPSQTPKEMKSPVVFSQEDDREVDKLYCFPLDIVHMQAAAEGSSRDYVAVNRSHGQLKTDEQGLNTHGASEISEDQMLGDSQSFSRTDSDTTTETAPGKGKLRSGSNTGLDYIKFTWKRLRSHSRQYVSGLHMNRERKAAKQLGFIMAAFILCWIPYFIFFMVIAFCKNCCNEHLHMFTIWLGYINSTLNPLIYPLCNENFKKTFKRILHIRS
Description: To evaluate in radioligand binding assays the activity of compounds of the invention, human recombinant histamine H1 receptor expressed in Chinese hamster ovary (CHO) cells (De Backer, M. D. et al., Biochem. Biophys. Res. Comm. 197(3):1601, 1993) in a modified Tris-HCl buffer (50 mM Tris-HCl, pH 7.4, 2 mM MgCl2, 100 mM NaCl, 250 mM Sucrose) was used. Compounds of the invention were incubated with 1.2 nM [^3H]Pyrilamine for 180 minutes at 25° C. Non-specific binding was estimated in the presence of 1 μM pyrilamine. Receptor proteins were filtered and washed, the filters were then counted to determine [^3H]Pyrilamine specifically bound. Compounds were screened at 1 μM or lower, using 1% DMSO as vehicle. Biochemical assay results are presented as the percent inhibition of specific binding in Table 2.

[2] = biological target: T2, human recombinant serotonin (5-Hydroxytryptamine) 5-HT7 receptor (Homo sapiens, UniProt P34969); assay: Serotonin 5-HT7 radioligand binding ([3H]LSD); conditions: read-out: Serotonin 5-HT7, inhibition of ligand binding (1 μM)
T2 construct: expressed in transfected cells; host or cells: CHO cells
T2 sequence (P34969 whole entry): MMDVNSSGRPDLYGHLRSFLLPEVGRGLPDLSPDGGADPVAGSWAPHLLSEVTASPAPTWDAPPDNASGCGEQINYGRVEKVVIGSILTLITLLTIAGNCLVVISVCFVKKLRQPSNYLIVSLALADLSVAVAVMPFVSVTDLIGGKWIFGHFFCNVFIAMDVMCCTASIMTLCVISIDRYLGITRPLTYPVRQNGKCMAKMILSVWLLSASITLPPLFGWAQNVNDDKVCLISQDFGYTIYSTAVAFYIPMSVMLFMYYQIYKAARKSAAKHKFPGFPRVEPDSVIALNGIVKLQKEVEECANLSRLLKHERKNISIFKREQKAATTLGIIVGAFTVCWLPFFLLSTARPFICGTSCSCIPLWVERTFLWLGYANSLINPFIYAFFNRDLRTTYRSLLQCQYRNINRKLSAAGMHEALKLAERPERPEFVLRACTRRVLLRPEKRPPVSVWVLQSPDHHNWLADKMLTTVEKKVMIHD
Description: To evaluate in radioligand binding assays the activity of compounds of the invention, human recombinant serotonin (5-Hydroxytryptamine) 5-HT7 receptor expressed in Chinese hamster ovary (CHO) cells (Roth, B. L. et al., J. Pharmacol. Exp. Ther. 268:1403, 1994; Shen, Y. et al., J. Biol. Chem. 268:18200, 1993) in a modified Tris-HCl buffer (50 mM Tris-HCl, pH 7.4, 10 mM MgCl2, 0.5 mM EDTA) was used. Compounds of invention were incubated with 5.5 nM [^3H] Lysergic acid diethylamide (LSD) for 2 hours at 25° C. Non-specific binding was estimated in the presence of 10 μM Serotonin (5-HT). Receptor proteins were filtered and washed, the filters were then counted to determine [^3H]LSD specifically bound. Compounds were screened at 1 μM or lower, using 1% DMSO as vehicle. Biochemical assay results are presented as the percent inhibition of specific binding in Table 4.

[3] = biological target: T3, human recombinant dopamine D2L receptor (Homo sapiens, UniProt P14416); assay: Dopamine D2L radioligand binding ([3H]Spiperone); conditions: read-out: Dopamine (1 μM) D2L, inhibition of ligand binding
T3 construct: expressed in transfected cells; host or cells: CHO cells
T3 sequence (P14416 whole entry): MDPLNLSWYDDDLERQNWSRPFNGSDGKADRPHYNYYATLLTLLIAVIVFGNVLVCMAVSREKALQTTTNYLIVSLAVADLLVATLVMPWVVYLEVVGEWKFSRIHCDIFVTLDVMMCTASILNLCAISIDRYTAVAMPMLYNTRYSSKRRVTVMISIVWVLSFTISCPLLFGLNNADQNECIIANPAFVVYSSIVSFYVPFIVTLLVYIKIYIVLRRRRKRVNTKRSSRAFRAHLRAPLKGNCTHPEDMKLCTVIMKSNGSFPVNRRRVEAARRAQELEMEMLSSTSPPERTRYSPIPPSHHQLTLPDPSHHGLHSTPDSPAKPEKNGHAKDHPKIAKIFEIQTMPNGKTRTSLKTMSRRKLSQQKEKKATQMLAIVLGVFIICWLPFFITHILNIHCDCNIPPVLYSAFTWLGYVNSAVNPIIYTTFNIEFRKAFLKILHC
Description: To evaluate in radioligand binding assays the activity of compounds of the invention, human recombinant dopamine D2L receptor expressed in Chinese hamster ovary (CHO) cells (Grandy, D. K. et al. Proc. Natl. Acad. Sci. USA. 86:9762, 1989; Hayes, G. et al., Mol. Endocrinol. 6:920, 1992) in a modified Tris-HCl buffer (50 mM Tris-HCl, pH 7.4, 1.4 mM Ascorbic Acid, 0.001% BSA, 150 mM NaCl) was used. Compounds of the invention were incubated with 0.16 nM [^3H]Spiperone for 120 minutes at 25° C. Non-specific binding was estimated in the presence of 10 μM Haloperidol. Receptor proteins were filtered and washed, the filters were then counted to determine [^3H]Spiperone specifically bound. Compounds were screened at 1 μM or lower, using 1% DMSO as vehicle. Biochemical assay results are presented as the percent inhibition of specific binding in Table 3.

[4] = biological target: T4, human recombinant serotonin (5-Hydroxytryptamine) 5-HT2A receptor (Homo sapiens, UniProt P28223); assay: Serotonin 5-HT2A radioligand binding ([3H]Ketanserin); conditions: read-out: Serotonin 5-HT2A, inhibition of ligand binding (1 μM)
T4 construct: expressed in transfected cells; host or cells: CHO-K1 cells
T4 sequence (P28223 whole entry): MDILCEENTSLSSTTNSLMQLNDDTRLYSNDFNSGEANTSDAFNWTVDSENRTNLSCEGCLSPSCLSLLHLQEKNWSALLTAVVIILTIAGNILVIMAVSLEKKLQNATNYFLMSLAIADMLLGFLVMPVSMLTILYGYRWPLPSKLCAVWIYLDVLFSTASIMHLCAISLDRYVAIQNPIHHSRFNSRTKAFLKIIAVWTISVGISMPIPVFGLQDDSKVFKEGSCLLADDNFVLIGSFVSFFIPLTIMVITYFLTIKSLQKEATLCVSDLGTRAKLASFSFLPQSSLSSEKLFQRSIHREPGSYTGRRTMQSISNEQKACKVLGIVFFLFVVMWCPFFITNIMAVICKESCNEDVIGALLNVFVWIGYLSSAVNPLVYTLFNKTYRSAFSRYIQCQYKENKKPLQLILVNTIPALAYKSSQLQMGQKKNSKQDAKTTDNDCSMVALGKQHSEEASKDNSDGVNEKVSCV
Description: To evaluate in radioligand binding assays the activity of compounds of the invention, human recombinant serotonin (5-Hydroxytryptamine) 5-HT2A receptor expressed in Chinese hamster ovary (CHO-K1) cells (Bonhaus, D. W. et al. Br. J. Pharmacol. 115:622, 1995; Saucier, C. and Albert, P. R., J. Neurochem. 68:1998, 1997) in a 50 mM Tris-HCl buffer, pH 7.4, was used. Compounds of the invention were incubated with 0.5 nM [^3H]Ketanserin for 60 minutes at 25° C. Non-specific binding was estimated in the presence of 1 μM Mianserin. Receptor proteins were filtered and washed, the filters were then counted to determine [^3H]Ketanserin specifically bound. Compounds were screened at 1 μM or lower, using 1% DMSO as vehicle. Biochemical assay results are presented as the percent inhibition of specific binding in Table 4.

[5] = biological target: T5, human recombinant serotonin (5-Hydroxytryptamine) 5-HT2C receptor (Homo sapiens, UniProt P28335); assay: Serotonin 5-HT2C radioligand binding ([3H]Mesulergine); conditions: read-out: Serotonin 5-HT2C, inhibition of ligand binding (1 μM)
T5 construct: expressed in transfected cells; host or cells: CHO-K1 cells
T5 sequence (P28335 33-458): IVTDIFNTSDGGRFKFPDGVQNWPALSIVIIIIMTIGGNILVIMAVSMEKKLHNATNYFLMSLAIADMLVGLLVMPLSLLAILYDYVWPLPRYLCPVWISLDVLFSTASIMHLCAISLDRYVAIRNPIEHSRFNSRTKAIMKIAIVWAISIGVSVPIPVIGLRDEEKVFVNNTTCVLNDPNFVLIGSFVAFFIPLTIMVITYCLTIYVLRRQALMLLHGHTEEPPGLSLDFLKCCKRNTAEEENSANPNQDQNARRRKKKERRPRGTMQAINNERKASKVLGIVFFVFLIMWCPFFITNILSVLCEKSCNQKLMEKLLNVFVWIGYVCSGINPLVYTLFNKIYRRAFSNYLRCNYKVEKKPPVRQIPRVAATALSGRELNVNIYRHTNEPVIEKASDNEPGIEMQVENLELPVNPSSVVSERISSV
Description: To evaluate in radioligand binding assays the activity of compounds of the invention, human recombinant serotonin (5-Hydroxytryptamine) 5-HT2C receptor expressed in Chinese hamster ovary (CHO-K1) cells (Wolf, W. A. and Schutz, J. S., J. Neurochem. 69:1449, 1997) in a modified Tris-HCl buffer (50 mM Tris-HCl, pH 7.4, 0.1% Ascorbic Acid, 10 μM Pargyline) was used. Compounds of the invention were incubated with 1 nM [^3H]Mesulergine for 60 minutes at 25° C. Non-specific binding was estimated in the presence of 1 μM Mianserin. Receptor proteins were filtered and washed, the filters were then counted to determine [^3H]Mesulergine specifically bound. Compounds were screened at 1 μM or lower, using 1% DMSO as vehicle. Biochemical assay results are presented as the percent inhibition of specific binding in Table 4.

[6] = biological target: T6, human recombinant histamine H2 receptor (Homo sapiens, UniProt P25021); assay: Histamine H2 radioligand binding ([125I]Aminopotentidine); conditions: compound at 1 μM; inhibition of specific [125I]Aminopotentidine binding; read-out: Histamine Binding (1 μM) H2, Percentage Inhibition
T6 construct: expressed in transfected cells; host or cells: CHO-K1 cells
T6 sequence (P25021 whole entry): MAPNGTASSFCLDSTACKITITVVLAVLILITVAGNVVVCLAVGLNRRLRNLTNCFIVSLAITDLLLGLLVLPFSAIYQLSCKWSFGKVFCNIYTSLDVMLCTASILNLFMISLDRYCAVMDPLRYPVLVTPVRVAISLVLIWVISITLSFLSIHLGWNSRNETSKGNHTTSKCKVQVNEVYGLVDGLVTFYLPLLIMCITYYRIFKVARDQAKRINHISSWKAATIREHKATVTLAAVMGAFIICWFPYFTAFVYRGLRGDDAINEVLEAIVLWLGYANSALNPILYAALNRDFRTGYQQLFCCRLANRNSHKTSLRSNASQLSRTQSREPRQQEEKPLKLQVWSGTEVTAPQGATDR
Description: To evaluate in radioligand binding assays the activity of compounds of the invention, human recombinant histamine H2 receptor expressed in Chinese hamster ovary (CHO) K1 cells (Ruat, M., Proc. Natl. Acad. Sci. USA. 87(5):1658, 1990) in a 50 mM Phosphate buffer, pH 7.4 was used. Compounds of the invention were incubated with 0.1 nM [^125I]Aminopotentidine for 120 minutes at 25° C. Non-specific binding was estimated in the presence of 3 μM Tiotidine. Receptor proteins were filtered and washed, the filters were then counted to determine [^125I]Aminopotentidine specifically bound. Compounds were screened at 1 μM or lower, using 1% DMSO as vehicle. Biochemical assay results are presented as the percent inhibition of specific binding in Table 2.

[7] = biological target: T7, human recombinant serotonin (5-Hydroxytryptamine) 5-HT6 receptor (Homo sapiens, UniProt P50406); assay: Serotonin 5-HT6 radioligand binding ([3H]LSD); conditions: read-out: Serotonin 5-HT6, inhibition of ligand binding (1 μM)
T7 construct: expressed in transfected cells; host or cells: human HeLa cells
T7 sequence (P50406 whole entry): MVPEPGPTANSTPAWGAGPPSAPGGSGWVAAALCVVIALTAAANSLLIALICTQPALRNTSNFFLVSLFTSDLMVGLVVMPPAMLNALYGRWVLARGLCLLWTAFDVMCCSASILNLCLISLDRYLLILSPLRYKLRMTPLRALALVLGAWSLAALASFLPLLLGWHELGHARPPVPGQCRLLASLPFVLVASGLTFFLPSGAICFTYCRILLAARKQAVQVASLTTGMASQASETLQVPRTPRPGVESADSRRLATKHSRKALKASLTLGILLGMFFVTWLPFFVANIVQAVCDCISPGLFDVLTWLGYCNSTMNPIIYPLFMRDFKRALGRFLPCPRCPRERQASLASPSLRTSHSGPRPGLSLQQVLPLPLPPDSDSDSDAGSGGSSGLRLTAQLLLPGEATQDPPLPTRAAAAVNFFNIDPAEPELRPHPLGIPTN
Description: To evaluate in radioligand binding assays the activity of compounds of the invention, human recombinant serotonin (5-Hydroxytryptamine) 5-HT6 receptor expressed in human HeLa cells (Monsma, F. J. Jr. et al., Mol. Pharmacol. 43:320, 1993) in a modified Tris-HCl buffer (50 mM Tris-HCl, pH 7.4, 150 mM NaCl, 2 mM Ascorbic Acid, 0.001% BSA) was used. Compounds of the invention were incubated with 1.5 nM [3H]Lysergic acid diethylamide (LSD) for 120 minutes at 37° C. Non-specific binding was estimated in the presence of 5 μM Serotonin (5-HT). Receptor proteins were filtered and washed, the filters were then counted to determine [3H]LSD specifically bound. Compounds were screened at 1 μM or lower, using 1% DMSO as vehicle. Biochemical assay results are presented as the percent inhibition of specific binding in Table 4.

Compound	inhibition at 1 µM [1] [%]	inhibition at 1 µM [2] [%]	inhibition at 1 µM [3] [%]	inhibition at 1 µM [4] [%]	inhibition at 1 µM [5] [%]	inhibition at 1 µM [6] [%]	inhibition at 1 µM [7] [%]
C/C(=C\n1c2c(c3cc(Cl)ccc31)C1CCC(C2)N1C)c1cccnc1 (centres unmarked) [Compound 128]	15	66	21	91	77	21	62
C/C(=C\n1c2c(c3cc(C)ccc31)C1CCC(C2)N1C)c1cccnc1 (centres unmarked) [Compound 129]	5	80	8	88	72	26	19
C/C(=C\n1c2c(c3cc(Cl)ccc31)C1CCC(C2)N1C)c1ccc(Cl)c(Cl)c1 (centres unmarked) [Compound 132]	87	81		100	95	99	31
COc1ccc(C#Cn2c3c(c4cc(Cl)ccc42)C2CCC(C3)N2C)cc1F (centres unmarked) [Compound 154]	30	21	13	96	97	87	31
COc1ccc(C#Cn2c3c(c4cc(C)ccc42)C2CCC(C3)N2C)cc1F (centres unmarked) [Compound 155]	10	24	10	100	99	84	49
C/C(=C\n1c2c(c3cc(C)ccc31)C1CCC(C2)N1C)c1ccccc1F (centres unmarked) [Compound 164]	65	96	12	94	93	41	57
